According to patent US9540412B2, “Methods of preparing targeted aptamer prodrugs” (Albert Einstein College of Medicine, Inc., priority 2010, dated 2017):
Like-named read-outs stand apart in the source and are kept apart here.

Assays:
[1] = tested on: Min6B1 cells; test: Flow cytometry cell labeling of Min6B1 cells; format: cell-based, mouse; settings: streptavidin phycoerytherin
[2] = tested on: HeLa cells; test: HeLa cell viability (alamarBlue) after aptamer-prodrug treatment; format: cell-based, human; settings: 50 nM aptamer, 4 days, serum free media (DMEM containing 1% Nutridoma), FIG. 3
Source text: To test the feasibility of this strategy for delivery of nucleoside analog drugs, two different anti-hTfR aptamers (designated min8 and min9.1) were extended with a 24 nucleotide extension. A complementary DNA oligonucleotide (FdC-oligo) was then synthesized to this region in which all cytosine residues had been replaced with the nucleoside analog 5F-deoxycytidine (FdC), a potent inhibitor of methyltransferase activity (Beumer et al. 2008). The aptamer-produgs were then assembled by mixing the drug oligo at a 1:1 molar ratio with one of two different minized anti-hTfR aptamers, min8, min9.1, or a non-targeting control aptamer (cntrl) in PBS and thermally equilibrated by heating at 70° C. Aptamer function following hybridization was confirmed by FACS using a FITC labeled version of the oligonucleotide.
The ability of the assembled anti-hTfR aptamer-prodrugs to deliver therapeutic cargo to cells was tested on HeLa cells. To avoid potential complications from degradation of the FdC-oligo (which is DNA and thus readily susceptible to degradation), these assays were performed in serum free media (DMEM containing 1% Nutridoma). Cells were incubated with increasing concentrations of either free drug, anti-hTfR aptamer-prodrugs or controls for 4 days, after which cell viability was assayed using the chromogenic substrate alamarBlue. […]

[3] = target: T1, human protein tyrosine kinase-7 (Homo sapiens, UniProt Q13308); test: Binding of fluorescently labeled scgc8 aptamer prodrugs to target cells (FIG. 4A); settings: fluorescently labeled aptamers
T1 construct: This protein is overexpressed on a variety of leukemia cell lines; endogenous in cells; host or cells: 'target cells'
T1 sequence (Q13308 31-1070): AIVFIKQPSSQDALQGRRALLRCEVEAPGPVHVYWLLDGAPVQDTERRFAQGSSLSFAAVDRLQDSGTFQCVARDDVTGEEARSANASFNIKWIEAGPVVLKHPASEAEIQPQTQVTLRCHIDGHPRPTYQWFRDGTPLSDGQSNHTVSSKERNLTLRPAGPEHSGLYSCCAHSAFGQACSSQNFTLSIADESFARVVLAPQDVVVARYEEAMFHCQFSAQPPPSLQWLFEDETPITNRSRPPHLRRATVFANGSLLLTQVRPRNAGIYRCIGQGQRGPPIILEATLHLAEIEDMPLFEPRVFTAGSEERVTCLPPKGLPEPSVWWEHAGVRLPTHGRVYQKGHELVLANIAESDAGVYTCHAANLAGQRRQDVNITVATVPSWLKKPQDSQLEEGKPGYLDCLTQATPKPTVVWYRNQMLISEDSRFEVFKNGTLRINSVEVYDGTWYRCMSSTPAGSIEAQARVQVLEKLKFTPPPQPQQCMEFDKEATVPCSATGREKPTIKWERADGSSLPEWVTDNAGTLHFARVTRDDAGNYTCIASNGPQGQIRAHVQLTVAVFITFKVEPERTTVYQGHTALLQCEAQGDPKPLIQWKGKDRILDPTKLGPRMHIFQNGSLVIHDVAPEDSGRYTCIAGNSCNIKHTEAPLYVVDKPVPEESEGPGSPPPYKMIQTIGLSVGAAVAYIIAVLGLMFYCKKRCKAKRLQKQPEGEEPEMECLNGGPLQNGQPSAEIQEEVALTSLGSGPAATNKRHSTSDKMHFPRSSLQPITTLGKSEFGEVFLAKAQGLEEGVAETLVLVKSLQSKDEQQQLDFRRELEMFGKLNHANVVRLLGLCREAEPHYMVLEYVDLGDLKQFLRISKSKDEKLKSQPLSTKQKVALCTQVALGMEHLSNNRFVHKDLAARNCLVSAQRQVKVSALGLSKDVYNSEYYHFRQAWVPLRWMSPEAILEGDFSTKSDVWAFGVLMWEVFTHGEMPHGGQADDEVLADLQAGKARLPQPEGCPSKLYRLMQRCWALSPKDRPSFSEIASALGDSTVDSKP
Source text: (§1) In addition to adding drugs to aptamers by hybridization, a series of aptamer-prodrugs has been synthesized using a DNA aptamer (scgc8) which targets human protein tyrosine kinase-7. […] To stabilize these aptamers against serum nucleases, the oligonucleotides were generated bearing a 3′ inverted thymidine residue which dramatically stabilizes the serum half-life of DNA molecules to ˜20 hrs (Dass et al. 2002).
A ssDNA aptamer that targets protein kinase 7 was selected by Shanggun et al (J Proteome Res, 2008 7:2133). The aptamer, scgc.8, was adapted for the delivery of floxuridine (5FdU) by site specific incorporation this nucleoside analog drug during chemical synthesis. Aptamer prodrugs were synthesized bearing a 5′ fluorescein molecule and a 3′ inverted thymiding residue to enhance serum stability. The sequence of the parental aptamer and the aptamer prodrugs are: Scgc.8 […] (SEQ ID NO:8); Scgc.8-5 AU*CU*AACU*[…]*U*AGA (SEQ ID NO:9); Scgc.8-9 AU*CU*AACU*GCU*GCGCCGCCGGGAAAAU*ACU*GU*ACGGU*U*AGA (SEQ ID NO:10). U* denotes 5FdU.

[4] = tested on: Jurkat cells; test: Jurkat cell growth inhibition / toxicity (FIG. 4B); format: cell-based, human; settings: 500 nM, regular media (RPMI+10% FBS), 3' inverted thymidine
Source text: as §1

[5] = tested on: LNCaP cells; settings: unconjugated toxin; read-out: IC50 (toxicity); cited from earlier work
[6] = tested on: Min6B1 cells; test: Internalization into Min6B1 cells (fluorescence microscopy); format: cell-based, mouse
Description: Aptamers that target and are internalized by beta cells were identified by performing an internalization selection against the glucose-responsive immortalized mouse beta cell line Min6B1. As in the selection against the transferrin receptor described above, in order to drive the selection towards molecules that are internalized, following incubation with the RNA library, target cells were washed extensively and treated with trypsin and ribonuclease to remove any surface bound RNA. Following recovery of total RNA, aptamers were amplified, transcribed and the process was repeated.
When similar experiments were conducted with the unselected library, little or no fluorescent signal was observed.

[7] = tested on: mouse (fibroblasts, brain endothelial, skeletal and myocardial muscles) and human (cervical and prostate cancer) cell lines; test: Specificity studies on additional mouse and human cell lines; format: cell-based

Molecule	cell labeling [1]	binding to target cells [3]	inhibition of cell growth / toxicity [4]	further results
C1.min: minimized core of C1, SEQ ID NO:12 (UGCGAAUCCUCUAUCCGUUCUAAACGCUUUAUGAUUUCGCA; listed as RNA, chemistry not given here)	labeled cells as efficiently as the full length clone			
Nc1nc(=O)n([C@H]2C[C@H](O)[C@@H](CO)O2)cc1F [free drug, 5F-deoxycytidine]				cell viability [2]: loss of cell viability
scgc8-9: scgc8 with all 9 thymidine residues replaced with floxuridine, SEQ ID NO:10 (AUCUAACUGCTGCGCCGCCGGGAAAATACTGTACGGUUAGA; all 9 thymidines replaced with floxuridine, chemistry not fully specified)		still bound target cells better than a scrambled control sequence (cntrl-9) but less efficiently than the non-drug containing aptamer (scgc8)	inhibited cell growth as efficiently as free drug alone	
scgc8-5: scgc8 with 5 of 9 thymidine residues replaced with floxuridine, SEQ ID NO:9 (AUCUAACUGCTGCGCCGCCGGGAAAATACTGTACGGUUAGA; floxuridine substitutions, chemistry not fully specified)		still bound target cells better than a scrambled control sequence (cntrl-9) but less efficiently than the non-drug containing aptamer (scgc8)	considerable lower levels of toxicity	
gelonin				IC50 [5]: ~5 µM
C1: 2′F modified internalizing RNA selected against Min6B1 cells, SEQ ID NO:11 (nucleic acid, 2'-fluoro modified RNA library, positions of 2'-F not given here) GGGAGGUGAAUGGUUCUACGAUAUUGCGAAUCCUCUAUCCGUUCUAAACGCUUUAUGAUUUCGCAUAGUCCUUACAUGCGAGAUGACCACCGUAAUUGAAUUAAAUGCCCGCCAUGACCAG	significant cell labeling			internalization [6]: not only binds to, but is also internalized by this cell type; internalization ([6]; listed as dominant clone): readily internalized by Min6B1 cells; cell specificity of targeting / internalization [7]: targets several unrelated cell lines across different species; cell specificity of targeting / internalization ([7]; listed as dominant clone): not specific for beta cells
